Legend:
[1] = system: Human epidermal adult keratinocytes (HEKa); assay: Scratch assay of keratinocyte monolayer (cell proliferation and migration, automated microscope); format: cell-based; conditions: 1.5 μM vemurafenib vs no vemurafenib, evident at 6, 8 and 12 hours
Procedure: Human epidermal adult keratinocytes (HEKa) were purchased from Invitrogen (Grand Island, N.Y.; C-005-5C). HEKa cells (25,000/well) were plated on 96-well ImageLock cell migration plates (Essen Bioscience, Ann Arbor, Mich.) and incubated overnight. Then, the cell monolayer was scratched with a 96-pin WoundMaker (Essen Bioscience), and the cells washed with PBS prior to adding cell medium. Cells were maintained in culture with a concentration of 1.5 μM of vemurafenib until complete scratch closure. Cell migration was monitored by a microscope gantry inside a cell incubator, which was connected to a networker external controller hard drive that gathered and processed image data (Incucyte, Essen Bioscience, Ann Arbor, Mich.). This allows an automated and non-invasive method of monitoring live cells in culture. […]
Human epithelial adult keratinocytes (HEKa) cultured as a monolayer in 96-well plates were subject to a scratch assay, where proliferating keratinocytes should regrow and cover the scratch. Replicate cultures with or without the BRAF inhibitor vemurafenib were placed in an incubator with an automated microscope analyzer and the number of nucleated cells in the original scratch was recorded over time. […]

HEKa cells = assay: Soft agar colony forming assay, HEKa; format: cell-based, human; conditions: 1.5 μM vemurafenib
Procedure: Twenty four-well plates were covered with 300 μl of serum-free RPMI 1640 (Fisher Scientific, Hampton, N.H.) with 0.6% Noble agar (BD Biosciences, San Jose, Calif.), and incubated at 37° C. overnight, until solid. 300 μl of a suspension of HEKa and M249 cells (15,000 cells/ml) in a 1:1 mixture of growth medium with a concentration of 1.5 μM of vemurafenib and growth factor-reduced matrigel (BD Biosciences) was added to each well. After one week, automated colony quantification was performed using a BioSpot Series 5 UV analyzer.
(§1) Using these cultures, MAPK signaling was analyzed by western blot (FIGS. 2G-2H); and pERK and cell proliferation were analyzed by quantitative intracellular flow (phosphoflow) cytometry (FIG. 2I and FIGS. 4A-4B). […] Furthermore, in the presence of vemurafinab the proliferative marker Ki67 decreased in M249 melanoma cells while it increased in HEKa cells (FIGS. 21-2J).

[2] = system: pERK and Ki67 in HEKa cells; assay: pERK and Ki67 by western blot and phosphoflow cytometry, HEKa; format: cell-based, human; conditions: 1.5 μM vemurafenib vs vehicle
Procedure: HEKa and M249 cells treated with a concentration of 1.5 μM of vemurafenib or vehicle control were fixed with formaldehyde to a final concentration of 1.6%, and permeabilized using methanol (90%). Then, they were washed in staining buffer (sterile PBS, 0.5% BSA, 0.01% sodium azide, NaN3), and stained with Alexa Flour 647 mouse anti-ERK1/2 (pT202/pY204) antibody and PE mouse anti-human Ki67 antibody (BD Pharmingen, San Jose, Calif.) as previously described by Comin-Anduix, et al., PLoS One 5:e12711 (2010). After incubation, cells were washed again and resuspended in 3 ml of staining buffer. A total of 30,000 cellular events were acquired for analysis. Data was analyzed using FlowJo (Tree Star Inc., Ashland, Oreg.).
M249 and HEKa cells were treated in duplicate with a concentration of 1.5 μM of vemurafenib or vehicle control. Western blotting was performed as described previously by Escuin-Ordinas, et al., Mol. Oncol. 8:250-60 (2014).
as §1

CCCS(=O)(=O)Nc1ccc(F)c(C(=O)c2c[nH]c3ncc(-c4ccc(Cl)cc4)cc23)c1F [vemurafenib]
covering of the original scratch [1]: statistically significant improvement in the covering of the original scratch
HEKa colonies in soft agar (HEKa cells; one week): HEKa colonies proliferated
mean spot size of HEKa colonies (HEKa cells; p=0.007): increased significantly
proliferative marker Ki67 in HEKa [2]: increased
pERK and cell cycle progression in HEKa ([2]; p=0.0225): paradoxical increase in pERK and cell cycle progression
